{"source": "patent US10457691B2", "about": "“Macrocyclic kinase inhibitors and uses thereof” (Dana-Farber Cancer Institute, Inc., priority 2014, dated 2019)", "type_in_all_cases": "biochemical", "key": {"AMPK": {"test_system": "AMPK", "assay": "Protein kinase assay ([γ-32P] ATP), AMPK", "experimental": "(§1) In another set of experiments, the activities of the compounds described herein against various protein kinases were determined according to the methods reported in Hastie et al., Nature Protocols, 2006, 1, 968-971.\n(§2) Enzyme dilution buffer. This buffer consisted of 50 mM Tris-HCl, pH 7.5, 0.1 mM EGTA, 1 mg ml^−1 bovine serum albumin and 0.1% (vol/vol) 2-mercaptoethanol.\n(§3) 10× concentrated assay buffer. An assay buffer of 500 mM Tris-HCl, pH 7.5, 1 mM EGTA, and 100 mM magnesium acetate was used for assay of a wide variety of protein kinases. In some experiments, other cofactors were included (e.g., calcium ions and calmodulin were included for assay of calcium-calmodulindependent protein kinases).\n(§4) 1 mM [γ-^32P] ATP. The specific activity of the [γ-^32P] ATP solution was 1×10^5 to 1×10^6 c.p.m. per nmol depending on what was needed to produce an optimal signal/noise ratio. […] To measure the concentration of ATP, a sample of such a stock solution was diluted to 20 μM, and the absorbance of the diluted sample was measured at 259 nm. The absorbance of a 20-μM stock solution of ATP at 259 nm was about 0.31. […] ATP to produce a radioactivity of 1×10^5 to 1×10^6 c.p.m. per nmol. […]\n(§5) 13) Measure radioactivity in the samples by Cerenkov counting (e.g., without liquid scintillation fluid) in a liquid scintillation counter using a “^32P program”. […]"}, "CK1δ": {"target": "CK1δ (Homo sapiens, UniProt P48730)", "sequence (P48730 whole entry)": "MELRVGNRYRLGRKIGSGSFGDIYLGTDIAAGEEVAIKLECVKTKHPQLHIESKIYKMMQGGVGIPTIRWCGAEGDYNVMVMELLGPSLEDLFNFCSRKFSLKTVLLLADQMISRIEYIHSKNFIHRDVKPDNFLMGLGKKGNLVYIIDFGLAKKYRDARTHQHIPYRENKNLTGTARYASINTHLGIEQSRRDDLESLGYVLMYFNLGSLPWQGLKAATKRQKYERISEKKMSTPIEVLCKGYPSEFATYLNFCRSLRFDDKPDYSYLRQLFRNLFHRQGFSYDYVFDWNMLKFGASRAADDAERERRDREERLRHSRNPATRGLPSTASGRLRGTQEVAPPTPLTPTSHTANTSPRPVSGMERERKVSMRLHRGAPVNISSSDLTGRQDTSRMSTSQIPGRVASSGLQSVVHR", "assay": "Protein kinase assay ([γ-32P] ATP), CK1δ", "settings": "read-out: Activity of the protein kinase when treated with compound I-1 (% control)", "experimental": "as §1, §2, §3, §4, §5"}, "CSK": {"target": "CSK (Homo sapiens, UniProt P41240)", "sequence (P41240 whole entry)": "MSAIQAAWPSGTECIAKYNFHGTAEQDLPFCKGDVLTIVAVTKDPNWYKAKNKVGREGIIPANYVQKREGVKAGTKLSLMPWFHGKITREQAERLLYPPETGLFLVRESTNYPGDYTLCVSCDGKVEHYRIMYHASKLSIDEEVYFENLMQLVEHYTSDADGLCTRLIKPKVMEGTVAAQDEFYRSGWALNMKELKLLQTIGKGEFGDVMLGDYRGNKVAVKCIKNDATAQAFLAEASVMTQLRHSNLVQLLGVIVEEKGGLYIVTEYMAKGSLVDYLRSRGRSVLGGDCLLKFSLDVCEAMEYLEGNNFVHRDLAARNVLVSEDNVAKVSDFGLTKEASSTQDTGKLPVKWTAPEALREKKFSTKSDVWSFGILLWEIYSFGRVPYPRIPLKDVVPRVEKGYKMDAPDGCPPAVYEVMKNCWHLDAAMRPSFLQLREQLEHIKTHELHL", "assay": "Protein kinase assay ([γ-32P] ATP), CSK", "settings": "read-out: Activity of the protein kinase when treated with compound I-1 (% control)", "experimental": "as §1, §2, §3, §4, §5"}, "DYRK3": {"target": "DYRK3 (Homo sapiens, UniProt O43781)", "sequence (O43781 whole entry)": "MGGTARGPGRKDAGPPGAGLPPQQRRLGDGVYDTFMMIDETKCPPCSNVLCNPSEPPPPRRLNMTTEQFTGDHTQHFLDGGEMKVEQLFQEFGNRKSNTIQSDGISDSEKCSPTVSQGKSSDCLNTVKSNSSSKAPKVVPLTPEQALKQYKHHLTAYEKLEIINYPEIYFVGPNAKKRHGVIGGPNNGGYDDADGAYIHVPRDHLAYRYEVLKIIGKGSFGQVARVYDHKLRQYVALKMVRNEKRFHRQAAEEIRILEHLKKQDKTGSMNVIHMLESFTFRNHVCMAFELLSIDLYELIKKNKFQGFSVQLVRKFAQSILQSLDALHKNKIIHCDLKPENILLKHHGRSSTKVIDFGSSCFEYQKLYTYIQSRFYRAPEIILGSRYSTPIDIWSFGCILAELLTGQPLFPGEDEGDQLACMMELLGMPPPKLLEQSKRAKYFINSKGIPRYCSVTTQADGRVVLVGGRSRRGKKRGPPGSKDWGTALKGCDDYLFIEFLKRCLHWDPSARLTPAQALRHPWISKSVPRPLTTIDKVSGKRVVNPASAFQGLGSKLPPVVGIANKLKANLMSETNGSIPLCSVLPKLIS", "assay": "Protein kinase assay ([γ-32P] ATP), DYRK3", "settings": "read-out: Activity of the protein kinase when treated with compound I-1 (% control)", "experimental": "as §1, §2, §3, §4, §5"}, "EPH-B4": {"target": "EPH-B4 (Homo sapiens, UniProt P54760)", "assay": "Protein kinase assay ([γ-32P] ATP), EPH-B4", "settings": "read-out: Activity of the protein kinase when treated with compound I-1 (% control)", "experimental": "as §1, §2, §3, §4, §5"}, "ERK8": {"target": "ERK8 (Homo sapiens, UniProt Q8TD08)", "sequence (Q8TD08 whole entry)": "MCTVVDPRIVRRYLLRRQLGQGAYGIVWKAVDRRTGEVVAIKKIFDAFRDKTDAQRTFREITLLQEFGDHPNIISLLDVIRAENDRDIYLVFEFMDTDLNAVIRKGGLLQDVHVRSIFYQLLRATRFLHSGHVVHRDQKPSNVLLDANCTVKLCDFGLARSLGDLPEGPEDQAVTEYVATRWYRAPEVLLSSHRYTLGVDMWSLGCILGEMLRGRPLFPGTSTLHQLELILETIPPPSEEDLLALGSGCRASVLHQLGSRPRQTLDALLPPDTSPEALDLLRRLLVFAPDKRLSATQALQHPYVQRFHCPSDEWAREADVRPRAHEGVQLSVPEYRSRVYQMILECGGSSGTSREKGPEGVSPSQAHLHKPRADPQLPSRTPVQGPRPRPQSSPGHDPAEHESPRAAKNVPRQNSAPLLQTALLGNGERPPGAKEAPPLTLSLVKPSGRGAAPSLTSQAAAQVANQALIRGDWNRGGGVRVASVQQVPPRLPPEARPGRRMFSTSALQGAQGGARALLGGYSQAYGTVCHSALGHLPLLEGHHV", "assay": "Protein kinase assay ([γ-32P] ATP), ERK8", "settings": "read-out: Activity of the protein kinase when treated with compound I-1 (% control)", "experimental": "as §1, §2, §3, §4, §5"}, "MAPKAP-K2": {"target": "MAPKAP-K2 (Homo sapiens, UniProt P49137)", "assay": "Protein kinase assay ([γ-32P] ATP), MAPKAP-K2", "settings": "read-out: Activity of the protein kinase when treated with compound I-1 (% control)", "experimental": "as §1, §2, §3, §4, §5"}, "MARK1": {"target": "MARK1 (Homo sapiens, UniProt Q9P0L2)", "sequence (Q9P0L2 whole entry)": "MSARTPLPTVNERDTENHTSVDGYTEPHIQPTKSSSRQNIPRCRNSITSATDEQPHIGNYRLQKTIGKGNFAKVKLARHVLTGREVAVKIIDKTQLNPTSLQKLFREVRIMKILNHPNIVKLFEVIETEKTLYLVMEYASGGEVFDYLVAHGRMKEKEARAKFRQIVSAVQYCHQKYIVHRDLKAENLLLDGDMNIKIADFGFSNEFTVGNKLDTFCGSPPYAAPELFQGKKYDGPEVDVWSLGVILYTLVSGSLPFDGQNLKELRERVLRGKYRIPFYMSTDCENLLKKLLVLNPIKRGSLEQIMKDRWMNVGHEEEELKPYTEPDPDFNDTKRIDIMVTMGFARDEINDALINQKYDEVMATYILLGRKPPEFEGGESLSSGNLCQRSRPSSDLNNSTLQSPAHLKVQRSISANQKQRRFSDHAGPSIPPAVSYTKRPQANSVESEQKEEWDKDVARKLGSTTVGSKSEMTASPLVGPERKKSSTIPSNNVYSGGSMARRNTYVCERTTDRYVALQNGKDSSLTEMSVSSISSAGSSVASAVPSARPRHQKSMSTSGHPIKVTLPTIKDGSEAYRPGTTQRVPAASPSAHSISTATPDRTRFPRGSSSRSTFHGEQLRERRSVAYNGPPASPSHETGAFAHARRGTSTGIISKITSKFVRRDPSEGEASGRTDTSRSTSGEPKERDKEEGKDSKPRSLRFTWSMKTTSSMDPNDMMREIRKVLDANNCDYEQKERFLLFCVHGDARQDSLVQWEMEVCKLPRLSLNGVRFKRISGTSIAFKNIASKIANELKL", "assay": "Protein kinase assay ([γ-32P] ATP), MARK1", "settings": "read-out: Activity of the protein kinase when treated with compound I-1 (% control)", "experimental": "as §1, §2, §3, §4, §5"}, "MEKK1": {"target": "MEKK1 (Homo sapiens, UniProt Q13233)", "assay": "Protein kinase assay ([γ-32P] ATP), MEKK1", "settings": "read-out: Activity of the protein kinase when treated with compound I-1 (% control)", "experimental": "as §1, §2, §3, §4, §5"}, "MKK1": {"target": "MKK1 (Homo sapiens, UniProt Q02750)", "assay": "Protein kinase assay ([γ-32P] ATP), MKK1", "settings": "read-out: Activity of the protein kinase when treated with compound I-1 (% control)", "experimental": "as §1, §2, §3, §4, §5"}, "MNK2": {"target": "MNK2 (Homo sapiens, UniProt Q9HBH9)", "sequence (Q9HBH9 whole entry)": "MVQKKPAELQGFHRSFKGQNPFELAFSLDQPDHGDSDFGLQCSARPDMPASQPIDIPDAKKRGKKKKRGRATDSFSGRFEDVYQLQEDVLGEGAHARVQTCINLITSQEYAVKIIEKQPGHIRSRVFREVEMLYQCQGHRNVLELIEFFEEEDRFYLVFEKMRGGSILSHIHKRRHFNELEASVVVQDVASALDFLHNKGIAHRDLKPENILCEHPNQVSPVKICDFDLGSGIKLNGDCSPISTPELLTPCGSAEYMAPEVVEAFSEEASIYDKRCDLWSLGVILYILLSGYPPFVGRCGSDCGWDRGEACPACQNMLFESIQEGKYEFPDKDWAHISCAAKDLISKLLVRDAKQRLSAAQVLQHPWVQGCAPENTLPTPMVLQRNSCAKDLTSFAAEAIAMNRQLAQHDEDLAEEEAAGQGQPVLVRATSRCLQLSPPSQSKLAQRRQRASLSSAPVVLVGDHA", "assay": "Protein kinase assay ([γ-32P] ATP), MNK2", "settings": "read-out: Activity of the protein kinase when treated with compound I-1 (% control)", "experimental": "as §1, §2, §3, §4, §5"}, "MST4": {"target": "MST4 (Homo sapiens, UniProt Q9P289)", "assay": "Protein kinase assay ([γ-32P] ATP), MST4", "settings": "read-out: Activity of the protein kinase when treated with compound I-1 (% control)", "experimental": "as §1, §2, §3, §4, §5"}, "NEK2a": {"target": "NEK2a (Homo sapiens, UniProt P51955)", "sequence (P51955 whole entry)": "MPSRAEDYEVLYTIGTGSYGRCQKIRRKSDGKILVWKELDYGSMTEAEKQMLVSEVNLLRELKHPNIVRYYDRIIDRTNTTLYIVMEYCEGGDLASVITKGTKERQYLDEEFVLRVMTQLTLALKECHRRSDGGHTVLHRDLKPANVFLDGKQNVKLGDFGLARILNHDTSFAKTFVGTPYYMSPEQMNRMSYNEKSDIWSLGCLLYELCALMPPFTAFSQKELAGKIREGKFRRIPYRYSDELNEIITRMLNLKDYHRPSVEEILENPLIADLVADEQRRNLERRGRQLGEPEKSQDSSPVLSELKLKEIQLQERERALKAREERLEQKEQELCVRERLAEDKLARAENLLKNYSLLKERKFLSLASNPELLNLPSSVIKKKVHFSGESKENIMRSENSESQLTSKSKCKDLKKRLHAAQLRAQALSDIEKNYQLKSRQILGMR", "assay": "Protein kinase assay ([γ-32P] ATP), NEK2a", "settings": "read-out: Activity of the protein kinase when treated with compound I-1 (% control)", "experimental": "as §1, §2, §3, §4, §5"}, "PAK4": {"target": "PAK4 (Homo sapiens, UniProt O96013)", "assay": "Protein kinase assay ([γ-32P] ATP), PAK4", "settings": "read-out: Activity of the protein kinase when treated with compound I-1 (% control)", "experimental": "as §1, §2, §3, §4, §5"}, "PKBa": {"target": "PKBa (Homo sapiens, UniProt P31749)", "sequence (P31749 whole entry)": "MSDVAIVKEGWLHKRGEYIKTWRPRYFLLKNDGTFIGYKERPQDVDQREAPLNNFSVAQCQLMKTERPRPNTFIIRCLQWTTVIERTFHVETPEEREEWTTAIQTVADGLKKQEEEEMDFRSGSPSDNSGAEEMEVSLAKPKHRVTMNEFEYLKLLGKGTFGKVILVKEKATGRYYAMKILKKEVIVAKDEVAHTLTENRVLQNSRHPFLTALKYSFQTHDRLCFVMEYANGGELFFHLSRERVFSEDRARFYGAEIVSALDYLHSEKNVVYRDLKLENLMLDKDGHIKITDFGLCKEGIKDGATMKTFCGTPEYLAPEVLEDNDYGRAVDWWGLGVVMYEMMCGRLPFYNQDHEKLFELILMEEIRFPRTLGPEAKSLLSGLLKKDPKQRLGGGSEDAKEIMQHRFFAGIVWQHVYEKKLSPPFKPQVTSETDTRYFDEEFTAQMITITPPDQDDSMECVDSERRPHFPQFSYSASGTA", "assay": "Protein kinase assay ([γ-32P] ATP), PKBa", "settings": "read-out: Activity of the protein kinase when treated with compound I-1 (% control)", "experimental": "as §1, §2, §3, §4, §5"}, "PKCz": {"target": "PKCz (Homo sapiens, UniProt Q05513)", "sequence (Q05513 whole entry)": "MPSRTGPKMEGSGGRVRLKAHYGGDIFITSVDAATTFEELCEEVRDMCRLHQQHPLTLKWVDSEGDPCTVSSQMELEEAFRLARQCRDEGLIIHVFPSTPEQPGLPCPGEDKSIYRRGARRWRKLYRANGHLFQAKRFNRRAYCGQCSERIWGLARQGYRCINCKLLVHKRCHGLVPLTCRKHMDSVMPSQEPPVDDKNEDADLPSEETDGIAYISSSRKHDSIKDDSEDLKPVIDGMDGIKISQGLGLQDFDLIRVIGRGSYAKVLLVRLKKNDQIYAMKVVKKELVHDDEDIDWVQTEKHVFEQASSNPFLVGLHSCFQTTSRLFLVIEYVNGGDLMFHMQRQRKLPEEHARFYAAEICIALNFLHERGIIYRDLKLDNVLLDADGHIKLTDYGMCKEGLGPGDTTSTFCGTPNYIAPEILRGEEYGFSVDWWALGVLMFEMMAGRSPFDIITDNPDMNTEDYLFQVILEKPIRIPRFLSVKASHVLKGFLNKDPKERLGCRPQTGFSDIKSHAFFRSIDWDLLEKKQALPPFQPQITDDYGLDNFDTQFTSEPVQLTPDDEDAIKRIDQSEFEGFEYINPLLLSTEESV", "assay": "Protein kinase assay ([γ-32P] ATP), PKCz", "settings": "read-out: Activity of the protein kinase when treated with compound I-1 (% control)", "experimental": "as §1, §2, §3, §4, §5"}, "YES1": {"target": "YES1 (Homo sapiens, UniProt P07947)", "assay": "Protein kinase assay ([γ-32P] ATP), YES1", "settings": "read-out: Activity of the protein kinase when treated with compound I-1 (% control)", "experimental": "as §1, §2, §3, §4, §5"}, "[1]": {"settings": "0.1 μM of compound I-1, DMSO control = 100%"}, "[2]": {"settings": "1 μM of compound I-1, DMSO control = 100%"}}}
{"smiles": "Cc1cccc(C)c1NC(=O)N1C/C=C\\COc2cccc(c2)Nc2cc1ncn2", "note": "[Compound I-1]", "values": [{"measurement": "Activity of the protein kinase when treated with compound I-1 (% control)", "setting": "AMPK; [1]", "result": 96, "unit": "% control"}, {"measurement": "Activity of the protein kinase when treated with compound I-1 (% control)", "setting": "AMPK; [2]", "result": 91, "unit": "% control"}, {"measurement": "remaining activity at 0.1 µM", "setting": "CK1δ; [1]", "result": 97, "unit": "%"}, {"measurement": "remaining activity at 1 µM", "setting": "CK1δ; [2]", "result": 99, "unit": "%"}, {"measurement": "remaining activity at 0.1 µM", "setting": "CSK; [1]", "result": 101, "unit": "%"}, {"measurement": "remaining activity at 1 µM", "setting": "CSK; [2]", "result": 10, "unit": "%"}, {"measurement": "remaining activity at 0.1 µM", "setting": "DYRK3; [1]", "result": 99, "unit": "%"}, {"measurement": "remaining activity at 1 µM", "setting": "DYRK3; [2]", "result": 87, "unit": "%"}, {"measurement": "remaining activity at 0.1 µM", "setting": "EPH-B4; [1]", "result": 55, "unit": "%"}, {"measurement": "remaining activity at 1 µM", "setting": "EPH-B4; [2]", "result": 4, "unit": "%"}, {"measurement": "remaining activity at 0.1 µM", "setting": "ERK8; [1]", "result": 99, "unit": "%"}, {"measurement": "remaining activity at 1 µM", "setting": "ERK8; [2]", "result": 72, "unit": "%"}, {"measurement": "remaining activity at 0.1 µM", "setting": "MAPKAP-K2; [1]", "result": 88, "unit": "%"}, {"measurement": "remaining activity at 1 µM", "setting": "MAPKAP-K2; [2]", "result": 84, "unit": "%"}, {"measurement": "remaining activity at 0.1 µM", "setting": "MARK1; [1]", "result": 62, "unit": "%"}, {"measurement": "remaining activity at 1 µM", "setting": "MARK1; [2]", "result": 68, "unit": "%"}, {"measurement": "remaining activity at 0.1 µM", "setting": "MEKK1; [1]", "result": 96, "unit": "%"}, {"measurement": "remaining activity at 1 µM", "setting": "MEKK1; [2]", "result": 95, "unit": "%"}, {"measurement": "remaining activity at 0.1 µM", "setting": "MKK1; [1]", "result": 96, "unit": "%"}, {"measurement": "remaining activity at 1 µM", "setting": "MKK1; [2]", "result": 81, "unit": "%"}, {"measurement": "remaining activity at 0.1 µM", "setting": "MNK2; [1]", "result": 104, "unit": "%"}, {"measurement": "remaining activity at 1 µM", "setting": "MNK2; [2]", "result": 108, "unit": "%"}, {"measurement": "remaining activity at 0.1 µM", "setting": "MST4; [1]", "result": 133, "unit": "%"}, {"measurement": "remaining activity at 1 µM", "setting": "MST4; [2]", "result": 81, "unit": "%"}, {"measurement": "remaining activity at 0.1 µM", "setting": "NEK2a; [1]", "result": 97, "unit": "%"}, {"measurement": "remaining activity at 1 µM", "setting": "NEK2a; [2]", "result": 85, "unit": "%"}, {"measurement": "remaining activity at 0.1 µM", "setting": "PAK4; [1]", "result": 100, "unit": "%"}, {"measurement": "remaining activity at 1 µM", "setting": "PAK4; [2]", "result": 78, "unit": "%"}, {"measurement": "remaining activity at 0.1 µM", "setting": "PKBa; [1]", "result": 99, "unit": "%"}, {"measurement": "remaining activity at 1 µM", "setting": "PKBa; [2]", "result": 86, "unit": "%"}, {"measurement": "remaining activity at 0.1 µM", "setting": "PKCz; [1]", "result": 111, "unit": "%"}, {"measurement": "remaining activity at 1 µM", "setting": "PKCz; [2]", "result": 82, "unit": "%"}, {"measurement": "remaining activity at 0.1 µM", "setting": "YES1; [1]", "result": 10, "unit": "%"}, {"measurement": "remaining activity at 1 µM", "setting": "YES1; [2]", "result": 15, "unit": "%"}]}
